Literature values, collected in US20040097404A1, “Supplement to be enternally administered for parenteral nutrition or partial enteral/oral nurtrition of the critically ill, the chronically ill and people with malnutrition” (priority 2000, published 2004).

Columns and labels:
[1] = oral, daily doses of 50 to 400 mg/kg of body weight over 3 weeks

butyrate concentration in the plasma [1]	Compound	carcinogenic properties at autopsy (parenteral form for 21 years, patient)	toxicity (trivalent chromium)	toxic side effects [1]
–	[Cr+3] [trivalent chromium]	no evidence of carcinogenic properties	nontoxic	–
~0.5 mmol	CCCC(=O)OCC(COC(=O)CCC)OC(=O)CCC [glycerol tributyrate]	–	–	without detectable toxic side effects
